{"source": "patent US20220387433A1", "about": "“TYPE V PHOSPHODIESTERASE INHIBITOR COMPOSITIONS, METHODS OF MAKING THEM AND METHODS OF USING THEM IN PREVENTING OR TREATING ELEVATED PULMONARY VASCULAR PRESSURE OR PULMONARY HEMORRHAGES” (American Regent, Inc., priority 2019, published 2022)", "type_in_all_cases": "in vivo", "key": {"exercising horses [1]": {"tested_on": "exercising horses", "test": "Simulated race test (SRT) on high-speed treadmill"}, "exercising horses [2]": {"tested_on": "exercising horses", "test": "Simulated race test (SRT) on high-speed treadmill", "from_the_text": "The purpose of this study was to determine the effects of intravenous administration of E-4021 on cardiorespiratory variables in exercising horses to facilitate the selection of a product dose for the control of hemorrhage associated with Exercise Induced Pulmonary Hemorrhage (EIPH). The formulation given was the propylene glycol formulation of Table 1.\nAnimals: The Rutgers University Institutional Animal Care and Facilities Committee approved all methods and procedures used in this experiment. Eight mature unfit Standardbred horses, 4 geldings and 4 mares were used in this study. The horses were healthy and acceptable for the study as determined by the study veterinarian. All horses underwent a physical examination to establish suitability for inclusion within the study. This included a physical examination and body weights. All of the horses were dewormed and vaccinated per standard veterinary practice. Animals were fed a maintenance ration of alfalfa/grass hay ad libitum and concentrate as needed. Water and mineral blocks were provided ad libitum. The horses were housed individually in 3×3 m stalls between 1600 to 0700 hours. They then performed their daily exercise followed by turnout in groups of 4 in 2 acres dry lot paddocks for ˜7 hrs/day.\nGeneral Study Design: There were four phases in this study detailed below. The horses performed conditioning exercise 4 d/week in a motorized equine exercise machine (Equi-cizer, Calgary, Canada) and heavy exercise 1 d/week on a high-speed treadmill (Sato I, Lexington Ky.) during Phase I. Heavy exercise prepared the horses for the later exercise tests performed during Phase Ib, Phase II, and Phase III of the experiment. The exercise tests were performed in the place of the heavy exercise training during those later three periods.\nPhase II: This was the first part of the main study with test-article dosing of the horses (Weeks ≥12). This part of the experiment was conducted using a randomized semi-crossover design with each horse undergoing a control round within the first two weeks of the phase. Horses were randomly assigned to one of five treatments (CON; 50-45; 100-45; 50-90; 100-90). Control (CON) where no drug was administered; 50-45 where they were tested 45 minutes after receiving a dose of 50 mg; 100-45 where they were tested 45 minutes after receiving 100 mg of the test-article; 50-90 where they were tested 90 minutes after receiving a 50 mg dose; and 100-90 where they were tested 90 minutes after receiving a 100 mg dose. For this phase, the horses ran a simulated race test (SRT) every week on the heavy exercise days. Group A (n=4) horses ran their tests on Thursdays (mornings) and Group B (n=4) horses ran their tests on Fridays (mornings). All horses continued with light and moderate exercise as indicated for the other study days.\nPhase III: This was the second part of the main study. This part of the experiment was conducted using a randomized crossover design where horses were initially assigned to one of four treatments (CON-B; 100-90B; 150-90; 200-90). Control (CON-B) where the horses received no drug; 100-90B where they were tested 90 minutes after receiving a 100 mg dose; 150-90 where they were tested 90 minutes after receiving a 150 mg dose; and 200-90 where they were tested 90 minutes after receiving a 200 mg dose. As with the other treatment phase the horses ran a weekly simulated race test (SRT) on the heavy exercise days. Group A (n=4) horses ran their tests on Thursdays (mornings) and Group B (n=4) horses ran their tests on Fridays (mornings).\nSimulated Race Test (SRT): During the SRT, each horse ran at a speed calculated to correspond to 110% of the speed required to produce maximal oxygen uptake as measured during the GXTs performed during Phase Ib. […] Hemodynamic measurements were recorded, and blood samples were obtained to correspond with the end of the warm-up, at 1 minute and 2 minutes of the high-speed run, and at the end of the recovery period. […]", "remark": "listed apart in the source"}, "horses": {"tested_on": "horses", "test": "Target Animal Safety (TAS) study / toxicity of formulations in horses", "conditions": "E-4021 containing meglumine, compared to E-4021 containing propylene glycol", "from_the_text": "The drug product vehicle contains about 35-45 wt % alcohol, 46 wt % propylene glycol and 10 wt % WFI. […] Test doses (in horses) with the vehicle confirmed that the dose toxicity was due to the vehicle. More specifically, propylene glycol was believed to be the cause of toxicity."}, "[3]": {"conditions": "100 mg (15005, meglumine) 90 min prior to SRT"}, "[4]": {"conditions": "100 mg (16006, meglumine), 90 min., 4 hrs., 24 hrs. and 48 hrs. post-injection"}}}
{"substance": "sodium 1-[6-chloro-4-(3,4-methylenedioxybenzyl)-aminoquinazolin-2-yl]piperidine-4-carboxylate sesquihydrate [E-4021]", "values": [{"measurement": "Oxygen uptake compared to control", "setting": "exercising horses [1]; [3]", "value": "not significantly different"}, {"measurement": "PAsO2 compared to control", "setting": "exercising horses [1]; [3]", "value": "not significantly different"}, {"measurement": "Plasma lactate compared to control", "setting": "exercising horses [1]; [3]", "value": "not significantly different"}, {"measurement": "Duration of pulmonary artery pressure reduction effect", "setting": "exercising horses [1]; 100 mg (16006, containing meglumine), post-injection for SRT", "value": "at least 24 hours"}, {"measurement": "Oxygen uptake compared to control", "setting": "exercising horses [1]; [4]", "value": "not significantly different"}, {"measurement": "PAsO2 compared to control", "setting": "exercising horses [1]; [4]", "value": "not significantly different"}, {"measurement": "Plasma lactate compared to control", "setting": "exercising horses [1]; [4]", "value": "not significantly different"}, {"measurement": "PA pressure during exercise, comparison of doses and times", "setting": "exercising horses [1]; 100 mg dose given 90 minutes prior to exercise, propylene glycol formulation, P<0.05", "value": "lowest PA pressure"}, {"measurement": "Pulmonary artery pressures during intense exercise", "setting": "exercising horses [1]; IV, propylene glycol formulation of Table 1, Phase II and III, most apparent at 2-minute point of high intensity run", "value": "substantially and significantly lower"}, {"measurement": "Effect on VO2", "setting": "exercising horses [1]; SRTs in Phase II and Phase III", "value": "no effect"}, {"measurement": "Pulmonary artery pressure after exercise at 48 hours", "setting": "exercising horses [1]; about 100 mg E-4021 containing meglumine (FIG. 21)", "value": "lower than the control"}, {"measurement": "Pulmonary artery pressure compared to control", "setting": "exercising horses [1]; single dose 100 mg (15005, meglumine formulation of Table 3) 90 minutes prior to SRT", "value": "reduces"}, {"measurement": "Attenuation of increased exercise-related pulmonary vascular pressures", "setting": "exercising horses [2]; 100 mg (approximately 500 kg horse), 90 minutes prior to intense exercise", "value": "greatest attenuation"}, {"measurement": "Lower PA pressure after 2 min intense exercise", "setting": "exercising horses [2]; 100 mg dose given at 90 min, Phase II and III", "value": "~30", "unit": "mm Hg"}, {"measurement": "Magnitude of PA pressure, 100 mg vs. 150 mg vs. 200 mg trials", "setting": "exercising horses [2]; 90 min before exercise, P>0.05, sesquihydrate", "value": "no differences"}, {"measurement": "Lower PAP", "setting": "exercising horses [2]; Example 8, 100 mg at 90 minutes before exercise, propylene glycol formulation", "value": "~30", "unit": "mmHg"}, {"measurement": "Mean pulmonary artery pressures compared to control", "setting": "exercising horses [2]; Phase III, 100, 150, 200 mg 90 min before, at 2 minutes of high intensity exercise, P<0.05", "value": "lower"}, {"measurement": "Markers of aerobic and anaerobic performance", "setting": "exercising horses [2]; SRT, propylene glycol formulation", "value": "did not alter"}, {"measurement": "Effect on plasma lactate concentration", "setting": "exercising horses [2]; SRTs, P>0.05", "value": "no effect"}, {"measurement": "Effect on plasma calcium concentration", "setting": "exercising horses [2]; during the SRTs", "value": "no effect"}, {"measurement": "Effect on plasma glucose concentration", "setting": "exercising horses [2]; during the SRTs", "value": "significant effect"}, {"measurement": "Renal toxicity or blood in the urine", "setting": "horses", "value": "did not have renal toxicity or blood in the urine"}]}
